This is an account of results in patent US12559454B2, “Benzenesulfonamide derivatives and uses thereof” (2692372 Ontario, Inc., priority 2019, dated 2026).

Test [1] has as its target T1, BTK (Homo sapiens, UniProt Q06187). As to the kind of experiment: BTK washout experiment. It is filed as biochemical. The settings on record: 6-h incubation, 50 nM BTK, 177 nM compound, 400-fold dilution; relative to DMSO. On the procedure: After a 3-h incubation of 40 nM BTK in the presence of 296 nM of compound I-A1, a 400-fold dilution was performed to remove excess inhibitor.
After a 6-h incubation of 50 nM BTK in the presence of 280 nM of compound 3A-6, a 400-fold dilution was performed to remove excess inhibitor.
By way of contrast, a “washout” experiment performed with ARQ-531 gives a very different result, because this compound lacks a warhead and is known to inhibit BTK reversibly. After a 6-h incubation of 50 nM BTK in the presence of 177 nM of ARQ-531, a 400-fold dilution was performed to remove excess inhibitor. […] This indicates to one of ordinary skill in the art that the enzyme was not inhibited irreversibly during the incubation with ARQ-531.

Test [2] has as its target T1, BTK. The test can be described thus: BTK irreversible inhibition, enzyme kinetic analysis. Type of test: biochemical. The settings on record: 0.1 nM BTK, 500 μM ATP. On the procedure: One of ordinary skill in the art will recognize that this is consistent with the irreversible inhibition of BTK by compound I-A1.
One of ordinary skill in the art will recognize that this is consistent with the irreversible inhibition of BTK by compound I-A6.
One of ordinary skill in the art will recognize that this is consistent with the irreversible inhibition of BTK by compound 3A-2.
The shift of IC50 to a lower value after pre-incubation of the enzyme indicates to one of ordinary skill in the art that a significant portion of the enzyme was inhibited irreversibly during the incubation period.

Test [3] concerns the target T1, BTK. As to the kind of experiment: In vitro BTK inhibition (no preincubation). Type of test: biochemical.
Test [4] concerns the target T2, His-tagged BTK kinase domain (Homo sapiens, UniProt Q06187).
T2 construct: Intact His-tagged BTK kinase domain (SOURCE)(10 μM) was incubated
The test can be described thus: Mass spectral analysis of tryptic digest of BTK kinase domain. It is filed as binding. The settings on record: 10 μM BTK KD, 10 μM compound, 45 min; for C481 covalent modification: tryptic peptide 467-487. On the procedure:
A protein kinase that is inhibited by compound and/or pharmaceutically acceptable salt of the present disclosure may be subjected to mass spectral analysis to assess the formation of permanent, irreversible covalent adducts. […] Such methods identify permanent, irreversible covalent protein adducts by observing a mass peak that corresponds to the mass of a control sample plus the mass of an irreversible adduct.
After the incubation time, the reactions were quenched by acetone precipitation and the pellet was re-dissolved in 8 M Urea. […] The BTK protein band was then excised and subjected to an in-gel trypsin digest by reducing the protein (5 mM DTT), alkylating the thiols with iodoacetamide (15 mM), and then incubating the protein gel band with trypsin in a 37 C water bath (4 hours). The tryptic digestion was then quenched by the addition of trifluoroacetic acid, and peptides were removed from the gel band by sonicating with increasing amounts of acetonitrile (0%, 30%, & 60%). Peptides were then purified using C18 ziptips, spotted on the MALDI target plate with α-cyano-4-hydroxycinnamic acid as the desorption matrix (10 mg/mL in 0.10% TFA:Acetonitrile 50:50), and analyzed in reflectron mode.

Test [5] relates to K562 cells. As to the kind of experiment: CellTiter-Blue cell viability, K562. Type of test: cell-based. The following applies: Homo sapiens, 72 hrs exposure. The procedure: (§1) Anti-cancer efficacy of exemplary compounds of this application was assessed in vitro in different cancer cell lines. Cell viability was examined following treatment at various concentration of inhibitor (0.097656-50 μM) using a cell Titer-Blue cell viability assay. 1×10^4 cells (NHF, MV4-11, K562 and MOLM-13 cells)/well were plated in 96-well assay plates in culture medium. All cells were grown in DMEM, IMDM and RPMI-1640 supplemented with 10% FBS. After 24 hrs, test compounds and vehicle controls were added to appropriate wells so the final volume was 100 μl in each well. The cells were cultured for the desired test exposure period (72 hrs) at 37° C. and 5% CO2. The assay plates were removed from 37° C. incubator and 20 μl/well of CellTiter-Blue® Reagent was added. The plates were incubated using standard cell culture conditions for 1-4 hours and the plates were shaken for 10 seconds and record fluorescence at 560/590 nm.

Test [6] concerns MOLM-13 cells. As to the kind of experiment: CellTiter-Blue cell viability, MOLM-13. It is filed as cell-based. The settings on record: Homo sapiens, 72 hrs exposure. On the procedure: as §1
Test [7] relates to tubulin. As to the kind of experiment: Tubulin polymerization assay. It is filed as biochemical. The settings on record: for % Inhibition: Vmax normalized to tubulin only control; for % D.O.P.: degree of polymerization relative to tubulin control. In a few lines: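 Purified tubulin (3 mg/mL in the polymerization mix) in 80 mM PIPES pH 6.9, 2 mM MgCl2, 0.5 mM EGTA, 1 mM GTP, 10.2% glycerol was added to inhibitor at 37 °C. A340 read every 15 s for 30 min; maximal baseline-subtracted change relative to tubulin-only control gave % degree of polymerization.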

Test [8] concerns MV4-11 cells. As to the kind of experiment: CellTiter-Blue cell viability, MV-4-11. It is filed as cell-based. The following applies: Homo sapiens, 72 hrs exposure. In a few lines:
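Cells plated at 1×10^4 per well, compound (0.097656-50 μM) added after 24 hrs and exposed 72 hrs at 37° C, 5% CO2. Viability by CellTiter-Blue, 1-4 h incubation, fluorescence at 560/590 nm.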

Each structure is given as a SMILES string.

T2 sequence (Q06187 402-655 limits assumed): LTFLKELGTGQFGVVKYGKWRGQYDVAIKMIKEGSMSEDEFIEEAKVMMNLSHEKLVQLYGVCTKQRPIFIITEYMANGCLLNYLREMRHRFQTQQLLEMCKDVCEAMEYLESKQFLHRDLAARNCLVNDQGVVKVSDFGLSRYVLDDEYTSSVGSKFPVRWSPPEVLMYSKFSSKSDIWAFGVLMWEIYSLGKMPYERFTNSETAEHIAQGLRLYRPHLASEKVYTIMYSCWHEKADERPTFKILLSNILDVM
T1 sequence (Q06187 whole entry, species assumed): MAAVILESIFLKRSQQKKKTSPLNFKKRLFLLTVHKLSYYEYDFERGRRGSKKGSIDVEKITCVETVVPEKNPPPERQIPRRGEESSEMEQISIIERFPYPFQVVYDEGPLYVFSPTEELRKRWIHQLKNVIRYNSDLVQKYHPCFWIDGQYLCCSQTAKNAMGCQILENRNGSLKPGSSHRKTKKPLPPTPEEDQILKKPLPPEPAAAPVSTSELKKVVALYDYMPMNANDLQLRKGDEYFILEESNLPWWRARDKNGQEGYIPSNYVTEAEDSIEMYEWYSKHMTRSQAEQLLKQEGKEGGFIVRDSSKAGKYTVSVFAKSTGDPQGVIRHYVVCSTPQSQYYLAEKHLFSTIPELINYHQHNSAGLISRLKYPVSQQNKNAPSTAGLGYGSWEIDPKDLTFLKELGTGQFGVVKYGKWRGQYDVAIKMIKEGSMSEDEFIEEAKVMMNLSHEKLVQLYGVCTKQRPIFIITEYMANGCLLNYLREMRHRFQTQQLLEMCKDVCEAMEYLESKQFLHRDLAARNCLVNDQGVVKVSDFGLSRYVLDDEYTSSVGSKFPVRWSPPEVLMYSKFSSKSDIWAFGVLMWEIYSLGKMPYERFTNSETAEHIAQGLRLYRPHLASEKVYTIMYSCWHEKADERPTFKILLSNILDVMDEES

Take `O=C(c1ccc(Oc2ccccc2)cc1Cl)c1c[nH]c2ncnc(N[C@@H]3CC[C@@H](CO)OC3)c12` [ARQ-531, reference compound]: the “residual activity of the enzyme” value in test [1] was “recovered all of its activity”.
In the case of `Nc1ncnc2c1c(-c1ccc(Oc3ccccc3)cc1)nn2[C@@H]1CCCN(S(=O)(=O)c2c(F)c(F)c(F)c(F)c2OCC(F)(F)F)C1` [Compound 3A-2, (R)-3-(4-phenoxyphenyl)-1-(1-((2,3,4,5-tetrafluoro-6-(2,2,2 trifluoroethoxy)phenyl)sulfonyl)piperidin-3-yl)-1H-pyrazolo[3,4-d]pyrimidin-4-amine], the “inhibition profile by enzyme kinetic analysis” value in test [2] was “time-dependent inhibition”. Further, the kinact in test [2] (saturation kinetics) was 0.00169 s⁻¹. The same compound gave a Ki in test [2] (saturation kinetics of irreversible inhibition) of 120 nM. For the same compound, the IC50 in test [3] (Table 17) is 100 to 1000 nM.
For `Nc1ncnc2c1c(-c1ccc(Oc3ccccc3)cc1)nn2[C@@H]1CCN(S(=O)(=O)c2cc(F)c(F)c(F)c2F)C1` [Compound 3A-4, 3-(4-phenoxyphenyl)-1-[(3R)-1-(2,3,4,5-tetrafluorophenyl)sulfonylpyrrolidin-3-yl]pyrazolo[3,4-d]pyrimidin-4-amine], in test [4], the C481 covalent modification result was “covalent modification and ✓”.
`Nc1ncnc2c1c(-c1ccc(Oc3ccccc3)cc1)nn2CCNS(=O)(=O)c1c(F)c(F)c(F)c(F)c1F` [Compound 3A-9, N-[2-[4-amino-3-(4-phenoxyphenyl)pyrazolo[3,4-d]pyrimidin-1-yl]ethyl]-2,3,4,5,6-pentafluoro-benzenesulfonamide]: the C481 covalent modification result in test [4] is “covalent modification and ✓”. Besides, in test [4] (tryptic peptide 526-536), the C527 covalent modification result was “covalent modification and ✓”. This compound also came in with an IC50 in test [3] (Table 18) of 0.1 to 10 nM.
Regarding `Nc1ncnc2c1c(-c1ccc(Oc3ccccc3)cc1)nn2CCCNS(=O)(=O)c1c(F)c(F)c(F)c(F)c1F` [Compound 3A-10, N-(3-(4-amino-3-(4-phenoxyphenyl)-1H-pyrazolo[3,4-d]pyrimidin-1-yl)propyl)-2,3,4,5,6-pentafluorobenzenesulfonamide], the IC50 in test [3] (Table 17) is 0.1 to 10 nM.
As to `Nc1ncnc2c1c(-c1ccc(Oc3ccccc3)cc1)nn2C1CN(S(=O)(=O)c2c(F)c(F)c(F)c(F)c2F)C1` [Compound 3A-24, 1-(1-((perfluorophenyl)sulfonyl)azetidin-3-yl)-3-(4-phenoxyphenyl)-1H-pyrazolo[3,4-d]pyrimidin-4-amine], in test [3] (Table 17), the 50% inhibitory concentration (IC50) lay in the range of 0.1 to 10 nM.
In the case of `COCCOc1ccc(Nc2ncc(F)c(NCCNS(=O)(=O)c3c(F)c(F)c(F)c(F)c3F)n2)cc1` [Compound 3A-37, 2,3,4,5,6-pentafluoro-N-(2-((5-fluoro-2-((4-(2-methoxyethoxy)phenyl)amino)pyrimidin-4-yl)amino)ethyl)benzenesulfonamide], the C481 covalent modification result in test [4] was “covalent modification and ✓”.
Same read-out and setting: in the case of `COCCOc1ccc(Nc2ncc(F)c(Nc3ccc(NS(=O)(=O)c4c(F)c(F)c(F)c(F)c4F)cc3)n2)cc1` [Compound 3A-38, 2,3,4,5,6-pentafluoro-N-(4-((5-fluoro-2-((4-(2-methoxyethoxy)phenyl)amino)pyrimidin-4-yl)amino)phenyl)benzenesulfonamide] it was “covalent modification and ✓”.
Take `COc1ccc(NS(=O)(=O)c2c(F)c(F)c(F)c(F)c2OCC(C)(C)C)cc1F` [Compound I-74, 2,3,4,5-tetrafluoro-N-(3-fluoro-4-methoxyphenyl)-6-(neopentyloxy)benzenesulfonamide]: the half-inhibitory concentration (IC50) was more than 10 µM in test [5], more than 10000 nM in test [6] and more than 10000 nM in test [8]. The “% Inhibition” value in test [7] is listed as “A (<10%)”. The “% D.O.P.” value in test [7] was “A (>85%)”.
`COc1ccc(NS(=O)(=O)c2c(F)c(F)c(F)c(F)c2Oc2ccc(O)cc2)cc1F` [Compound I-77, 2,3,4,5-tetrafluoro-N-(3-fluoro-4-methoxyphenyl)-6-(4-hydroxyphenoxy)benzenesulfonamide]: the IC50 in test [5] is more than 10 µM; in test [6], more than 10000 nM; in test [8], 1000 to 10000 nM. Moreover, the “% Inhibition” value in test [7] is recorded as “A (<10%)”. For the same compound, the “% D.O.P.” value in test [7] is “A (>85%)”.
In the same order, the values of `COc1ccc(NS(=O)(=O)c2c(F)c(F)c(F)c(F)c2Oc2ccc(OC)c(F)c2)cc1F` [Compound I-78, 2,3,4,5-tetrafluoro-6-(3-fluoro-4-methoxyphenoxy)-N-(3-fluoro-4-methoxyphenyl)benzenesulfonamide] are 1 to 10 µM, 1000 to 10000 nM, 1000 to 10000 nM, “B (10-20%)” and “B (< 85%)”.
As for `COc1ccc(Oc2c(F)c(F)c(F)c(F)c2S(=O)(=O)Nc2ccc(OC)c(F)c2)cc1` [Compound I-79, 2,3,4,5-tetrafluoro-N-(3-fluoro-4-methoxyphenyl)-6-(4-methoxyphenoxy)benzenesulfonamide], the 50% inhibitory concentration (IC50) in test [5] was more than 10 µM; in test [6] it was 1000 to 10000 nM; in test [8], 1000 to 10000 nM. In addition, in test [7], the “% Inhibition” value is listed as “A (<10%)”. The “% D.O.P.” value in test [7] is “A (>85%)”.
Take `COc1ccc(NS(=O)(=O)c2c(F)c(F)c(F)c(F)c2OCF)cc1F` [Compound I-83, 2,3,4,5-tetrafluoro-N-(3-fluoro-4-methoxyphenyl)-6-(fluoromethoxy)benzenesulfonamide]: the 50% inhibitory concentration (IC50) in test [5] was not above 0.1 µM; in test [6] it was not above 100 nM; in test [8], not above 100 nM. Further, the “% Inhibition” value in test [7] is on record as “C (>20%)”. The “% D.O.P.” value in test [7] was “B (< 85%)”.
As for `COc1ccc(NS(=O)(=O)c2c(F)c(F)c(F)c(F)c2C(=O)C(F)(F)F)cc1F` [Compound I-90, 2,3,4,5-tetrafluoro-N-(3-fluoro-4-methoxyphenyl)-6-(2,2,2-trifluoroacetyl)benzenesulfonamide], the half-maximal inhibitory concentration (IC50) in test [5] is more than 10 µM; in test [6] it was 1000 to 10000 nM; in test [8], 1000 to 10000 nM. Moreover, the “% Inhibition” value in test [7] is recorded as “A (<10%)”. In test [7], the “% D.O.P.” value was “A (>85%)”.
Turning to `COc1ccc(NS(=O)(=O)c2cc(F)c(F)c(F)c2F)cc1F` [Compound I-93, 2,3,4,5-tetrafluoro-N-(3-fluoro-4-methoxyphenyl)benzenesulfonamide], the IC50 in test [5] is not above 0.1 µM; in test [6], 100 to 1000 nM; in test [8], not above 100 nM. Besides, the “% Inhibition” value in test [7] is “C (>20%)”. Moreover, the “% D.O.P.” value in test [7] is “B (< 85%)”.
